SMILES strings stand for the structures. Several values for one entry are separate records, joined by “and”; a condition that tells them apart may be missing. Equal values may be shown once.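 Test compounds were applied to cells in 96-well plates for 48 hours at 5 doses. GI50: concentration for 50% inhibition of growth. The concentration for full growth arrest is given as TGI.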

Some test systems named below: CAKI-1 renal; HOP-18 NSCLC; KM20L2 colon; M19-MEL melanoma; NCI-H522 lung; OVCAR-5 ovarian; SW-620 colon; BT-549 breast; SK-MEL-2 melanoma; DMS 273 small cell lung.
Holding throughout (experiment): DTP human tumour cell line panel, 48 h

Broadly, the TGI is the concentration at which net growth stops. Regarding `CC(=O)Nc1ccccc1-c1cnc2ccccc2n1`, the TGI in the assay on CAKI-1 renal, in the assay on HOP-18 NSCLC, in the assay with KM20L2 colon, with M19-MEL melanoma, in the assay on NCI-H522 lung and with OVCAR-5 ovarian was over 100 µM in each case. This molecule showed a TGI with SW-620 colon of over 100 µM.

For orientation: GI50 means the concentration that inhibits growth by half. In the case of `O=c1oc2ccc(Cl)cc2c(=O)n1-c1cc(C(F)(F)F)cc(C(F)(F)F)c1`, the GI50 is 0.258 µM with BT-549 breast; 0.198 µM in the assay with CAKI-1 renal; 0.25 µM in the assay on NCI-H522 lung; 0.423 µM with OVCAR-5 ovarian; 0.236 µM in the assay on SK-MEL-2 melanoma; 0.328 µM with SW-620 colon. Further, the TGI in the assay with BT-549 breast was 0.86 µM; in the assay with CAKI-1 renal, 0.689 µM; in the assay on NCI-H522 lung, 2.57 µM; in the assay on OVCAR-5 ovarian, 17.4 µM; in the assay on SK-MEL-2 melanoma, 0.846 µM; in the assay with SW-620 colon, 5.95 µM.

For the molecule `Cc1ccccc1NC(=O)C1C(=O)N(c2ccccc2C)C(=O)/C1=N\N` (stereo not drawn), the TGI in the assay on CAKI-1 renal, in the assay on HOP-18 NSCLC, with KM20L2 colon, in the assay with M19-MEL melanoma, in the assay with NCI-H522 lung and in the assay with OVCAR-5 ovarian was over 100 µM each time. Also, the TGI in the assay with SK-MEL-2 melanoma and with SW-620 colon was over 100 µM throughout.

Turning to `Cc1ccc2c(Nc3cccc(Cl)c3F)ncc(NC(=O)c3csc4c(N)ncnc34)c2c1`, the GI50 in the assay with BT-549 breast is over 100 µM; in the assay with CAKI-1 renal it was 0.734 µM; with NCI-H522 lung it was over 100 µM; in the assay on OVCAR-5 ovarian, 0.137 µM; in the assay with SK-MEL-2 melanoma it was 0.0856 µM; in the assay on SW-620 colon, 1.21 µM. The TGI in the assay with BT-549 breast, in the assay on CAKI-1 renal, with NCI-H522 lung, with OVCAR-5 ovarian, in the assay with SK-MEL-2 melanoma and with SW-620 colon was over 100 µM in each case.

Regarding `CCOC(=O)c1ccc(Nc2sc(C(=O)c3cccc([N+](=O)[O-])c3)c(N)c2C#N)cc1`, the GI50 in the assay on BT-549 breast was 0.0568 µM; in the assay with CAKI-1 renal, 0.044 µM; with NCI-H522 lung, 0.0277 µM; in the assay on OVCAR-5 ovarian, 2.25 µM; with SK-MEL-2 melanoma, 0.403 µM; with SW-620 colon it was 0.0591 µM. The TGI came out at 39.4 µM in the assay with BT-549 breast; 0.253 µM with CAKI-1 renal; 0.852 µM in the assay on NCI-H522 lung; 29.6 µM in the assay on OVCAR-5 ovarian; 24.4 µM in the assay with SK-MEL-2 melanoma; 6.63 µM in the assay with SW-620 colon.

`COc1cc2ccnc3c2c(c1OC)-c1ccc(=O)ccc1-3`: the GI50 in the assay on BT-549 breast is 32.1 µM; in the assay with CAKI-1 renal it was 16.5 µM; in the assay on NCI-H522 lung, 23.4 µM; in the assay on OVCAR-5 ovarian, 51.7 µM; with SK-MEL-2 melanoma, 52.6 µM; with SW-620 colon it was 13.9 µM. Further, the TGI in the assay with BT-549 breast is over 100 µM; with CAKI-1 renal it was 39.5 µM; in the assay with NCI-H522 lung, 71.3 µM; in the assay with OVCAR-5 ovarian, over 100 µM; in the assay on SK-MEL-2 melanoma, over 100 µM; with SW-620 colon, over 100 µM.

For `COc1cc2c(c(OC)c1OC)-c1ccc(SC)c(=O)cc1[C@@H](NCc1cccc(C#N)c1)CC2`, the TGI with CAKI-1 renal is over 75 µM; with DMS 273 small cell lung, under 0.0075 µM; in the assay on KM20L2 colon, 0.0302 µM and < 0.0075 µM; in the assay with M19-MEL melanoma it was 42.4 µM; with NCI-H522 lung, 0.0377 µM and < 0.0075 µM; in the assay with OVCAR-5 ovarian, over 75 µM. Moreover, the TGI was under 0.0075 µM in the assay on SK-MEL-2 melanoma and over 75 µM with SW-620 colon. For the same molecule, the GI50 was under 0.0075 µM with DMS 273 small cell lung; under 0.0075 µM with KM20L2 colon; under 0.0075 µM in the assay with M19-MEL melanoma; under 0.0075 µM in the assay on NCI-H522 lung; over 75 µM in the assay with OVCAR-5 ovarian; under 0.0075 µM in the assay with SK-MEL-2 melanoma. Besides, the GI50 in the assay with SW-620 colon was under 0.0075 µM.

In the case of `Nc1ccn(C2CC(O)C(CO)O2)c(=O)n1` (stereo not drawn), the GI50 with BT-549 breast, in the assay with CAKI-1 renal, in the assay on NCI-H522 lung, in the assay on OVCAR-5 ovarian, in the assay with SK-MEL-2 melanoma and in the assay on SW-620 colon was over 5000 µM throughout. Also, the TGI in the assay on BT-549 breast, in the assay with CAKI-1 renal, in the assay with NCI-H522 lung, in the assay with OVCAR-5 ovarian, in the assay on SK-MEL-2 melanoma and in the assay with SW-620 colon was over 5000 µM in each case.

As for `CC1(C)N=C(N)N=C(N)N1c1cccc(CCCCc2ccccc2)c1`, the GI50 with BT-549 breast is 0.901 µM; in the assay with CAKI-1 renal, 4.15 µM; in the assay on NCI-H522 lung it was 0.691 µM; in the assay with OVCAR-5 ovarian, 11.1 µM; with SK-MEL-2 melanoma, 1.82 µM; in the assay on SW-620 colon, 0.0532 µM. For the same molecule, the TGI is 3.99 µM in the assay with BT-549 breast; 22.3 µM with CAKI-1 renal; 13.7 µM with NCI-H522 lung; 25.9 µM in the assay with OVCAR-5 ovarian; 11.4 µM in the assay with SK-MEL-2 melanoma; 16.4 µM with SW-620 colon.

With `C/C1=C\C/C=C(\C)[C@H]2CC(CC/C(C)=C/CC1)[C@@](C)(CO)O2`, the GI50 in the assay on BT-549 breast was over 100 µM; in the assay with CAKI-1 renal, 44.9 µM; in the assay with NCI-H522 lung, 23.3 µM; with OVCAR-5 ovarian it was over 100 µM; with SK-MEL-2 melanoma, 44.9 µM; with SW-620 colon it was 52.9 µM. The TGI in the assay with BT-549 breast, in the assay on CAKI-1 renal, in the assay with NCI-H522 lung, in the assay with OVCAR-5 ovarian, in the assay on SK-MEL-2 melanoma and in the assay with SW-620 colon was over 100 µM in each case.

Turning to `CN(C)CC/C(=N\Nc1ccc(Cl)c(Cl)c1)c1ccccc1`, the TGI with DMS 273 small cell lung was 3.23 µM; in the assay with HOP-18 NSCLC, 5.76 µM; in the assay on KM20L2 colon, 3.17 µM; with M19-MEL melanoma, 3.51 µM; in the assay with NCI-H522 lung, 4.28 µM; with OVCAR-5 ovarian it was 6.34 µM. This molecule also registered a TGI in the assay with SW-620 colon of 3.68 µM.

For `CC[C@H](C)[C@H](NC(=O)Nc1ccccc1)C(=O)N(C)[C@H](C[C@@H](OC(C)=O)c1nc(C(=O)N[C@@H](Cc2ccccc2)C[C@H](C)C(=O)OC)cs1)C(C)C`, the GI50 is 3.09 µM with BT-549 breast; 9.01 µM in the assay on CAKI-1 renal; 1.5 µM in the assay with NCI-H522 lung; 11.9 µM in the assay with OVCAR-5 ovarian; 3.17 µM in the assay with SK-MEL-2 melanoma; 3.58 µM in the assay with SW-620 colon. The TGI with BT-549 breast was 41.2 µM; with CAKI-1 renal, over 100 µM; in the assay on NCI-H522 lung, 21.1 µM; in the assay with OVCAR-5 ovarian it was over 100 µM; in the assay on SK-MEL-2 melanoma it was over 100 µM; with SW-620 colon it was over 100 µM.
